Measured values: ChEMBL document CHEMBL3886513, “Benzothiazole-based pyridinium compounds” (2016)

Key:
[1] = molecular target: Acetylcholinesterase (Electrophorus electricus, UniProt O42275); experiment: (§1) AChE/BuChE Inhibition Assay: The cholinesterase assays were performed using colorimetric method reported by Ellman. The appearance of product was monitored at 412 nm for 5 min using a spectrophotometer. The reaction rates were compared and the percent inhibition due to the presence of test compounds was calculated. Inhibition curve was obtained for each compound. The linear regression parameters were determined and the IC50 values extrapolated.
Acetylcholinesterase (Electrophorus electricus, UniProt O42275), sequence (O42275 whole entry): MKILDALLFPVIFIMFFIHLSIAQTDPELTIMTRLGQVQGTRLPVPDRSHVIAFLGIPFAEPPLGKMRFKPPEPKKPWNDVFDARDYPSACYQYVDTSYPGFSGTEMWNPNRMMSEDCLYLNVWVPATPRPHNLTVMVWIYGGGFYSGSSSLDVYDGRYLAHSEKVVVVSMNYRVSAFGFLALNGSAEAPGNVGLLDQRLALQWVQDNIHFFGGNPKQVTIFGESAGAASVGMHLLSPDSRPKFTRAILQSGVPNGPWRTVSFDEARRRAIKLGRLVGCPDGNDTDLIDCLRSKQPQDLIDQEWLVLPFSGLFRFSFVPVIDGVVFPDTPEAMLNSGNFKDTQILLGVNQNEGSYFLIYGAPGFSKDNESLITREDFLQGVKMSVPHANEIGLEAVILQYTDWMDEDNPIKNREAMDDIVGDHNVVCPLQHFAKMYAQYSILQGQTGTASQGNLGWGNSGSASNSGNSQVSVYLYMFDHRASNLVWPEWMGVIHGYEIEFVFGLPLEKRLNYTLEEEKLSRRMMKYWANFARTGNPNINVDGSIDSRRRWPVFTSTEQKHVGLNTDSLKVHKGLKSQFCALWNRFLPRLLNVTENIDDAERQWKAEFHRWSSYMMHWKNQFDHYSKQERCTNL

[2] = molecular target: Acetylcholinesterase (Homo sapiens, UniProt P22303); experiment: as §1
Acetylcholinesterase (Homo sapiens, UniProt P22303), sequence (P22303 whole entry): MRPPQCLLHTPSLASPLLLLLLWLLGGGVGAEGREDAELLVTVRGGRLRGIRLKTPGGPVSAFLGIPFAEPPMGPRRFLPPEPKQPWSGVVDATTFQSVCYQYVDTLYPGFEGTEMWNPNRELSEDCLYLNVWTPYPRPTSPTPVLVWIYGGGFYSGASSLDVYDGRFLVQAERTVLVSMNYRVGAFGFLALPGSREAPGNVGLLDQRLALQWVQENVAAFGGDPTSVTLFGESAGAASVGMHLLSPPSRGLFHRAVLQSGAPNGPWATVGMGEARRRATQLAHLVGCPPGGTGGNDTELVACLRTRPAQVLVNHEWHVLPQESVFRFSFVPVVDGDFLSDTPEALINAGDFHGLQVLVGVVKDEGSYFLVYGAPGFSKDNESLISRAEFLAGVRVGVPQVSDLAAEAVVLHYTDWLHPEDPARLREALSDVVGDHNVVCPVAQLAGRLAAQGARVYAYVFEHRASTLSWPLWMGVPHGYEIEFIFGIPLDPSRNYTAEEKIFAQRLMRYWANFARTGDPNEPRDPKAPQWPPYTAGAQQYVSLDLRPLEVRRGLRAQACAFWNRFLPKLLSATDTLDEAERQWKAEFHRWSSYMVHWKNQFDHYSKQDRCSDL

[3] = molecular target: Cholinesterase (Homo sapiens, UniProt P06276); experiment: as §1
Cholinesterase, sequence (P06276 whole entry): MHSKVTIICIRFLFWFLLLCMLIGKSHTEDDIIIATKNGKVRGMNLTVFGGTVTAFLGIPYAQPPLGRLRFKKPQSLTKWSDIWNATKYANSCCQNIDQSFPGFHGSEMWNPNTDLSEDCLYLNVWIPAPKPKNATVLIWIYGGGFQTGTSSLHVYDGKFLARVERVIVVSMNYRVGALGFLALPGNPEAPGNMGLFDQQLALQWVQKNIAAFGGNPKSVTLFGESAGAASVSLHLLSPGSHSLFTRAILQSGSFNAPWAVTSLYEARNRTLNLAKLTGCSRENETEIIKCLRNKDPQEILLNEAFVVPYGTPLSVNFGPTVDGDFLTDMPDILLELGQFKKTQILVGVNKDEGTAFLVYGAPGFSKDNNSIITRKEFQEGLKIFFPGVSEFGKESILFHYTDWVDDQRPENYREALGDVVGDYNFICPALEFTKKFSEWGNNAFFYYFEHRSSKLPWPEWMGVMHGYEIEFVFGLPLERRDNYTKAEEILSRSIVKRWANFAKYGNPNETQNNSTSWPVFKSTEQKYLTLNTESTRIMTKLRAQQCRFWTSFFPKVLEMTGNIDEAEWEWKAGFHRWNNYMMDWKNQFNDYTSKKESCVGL

| Compound | IC50 [1] [nM] | IC50 [2] [nM] | IC50 [3] [nM] |
| --- | --- | --- | --- |
| COc1ccc2nc(NCCc3cc[n+](Cc4ccccc4)cc3)sc2c1 | 441 | 186 | 3010 |
| O=[N+]([O-])c1ccc2nc(NCCc3cc[n+](Cc4ccc(F)cc4)cc3)sc2c1 | 25 | 96 | 11900 |
| COc1ccc2nc(NCCc3cc[n+](Cc4c(F)cccc4F)cc3)sc2c1 | 408 | 203 | 826 |
| COc1ccc2nc(NCCc3cc[n+](Cc4ccc(F)cc4)cc3)sc2c1 | 542 | 223 | 5630 |
| Fc1ccc(C[n+]2ccc(CCNc3nc4ccc(F)cc4s3)cc2)cc1 | 500 | 269 | 8160 |
